Patent US20210403485A1, “PYRAZOLOPYRIMIDINE DERIVATIVE AS SELECTIVE TRK INHIBITOR” (SHANDONG LUYE PHARMACEUTICAL CO., LTD., priority 2018, published 2021)

Legend:
Ros1 = target: T1, Ros1 (Homo sapiens, UniProt P08922); test: Kinase inhibitory activity (33P-ATP, filtration-binding method, Reaction Biology Corp.); format: biochemical
T1 construct: purchased Reaction Biology Corp
How it was run: (§1)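 Radiometric kinase assay: enzyme-compound mixture preincubated 20 minutes at room temperature, then reaction started with ^33P-ATP and run 120 minutes at room temperature. Filtration-binding readout. Activity expressed relative to DMSO control; IC50 from fitted dose-response curves.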

TrkA = target: T2, TrkA (Homo sapiens, UniProt P04629); test: as above; format: biochemical
T2 construct: purchased Reaction Biology Corp
How it was run: as §1

TrkA-G667C = target: T3, TrkA-G667C (Homo sapiens, UniProt P04629, G667C); test: as above; format: biochemical
T3 construct: purchased Reaction Biology Corp
How it was run: as §1

Ba/F3 LMNA-NTRK1-F589L = target: T4, Ba/F3 LMNA-NTRK1-F589L (Homo sapiens, UniProt P04629, F589L, cells depend on it); test: Inhibitory activity against cell proliferation (CellTiter-Glo, 72 hours); format: cell-based; details: read-out: Half maximal inhibitory concentration IC50 of cells, Ba/F3 LMNA-NTRK1-F589L
T4 construct: fused on or other part: N-terminal part of LMNA as fusion partner (part of the key); P02545 (Prelamin-A/C)
Method: (§2) Adenosine Triphosphate (ATP) is an energy carrier commonly used in various life activities in nature, and is the minimum unit for energy storage and transfer. The CellTiter-Glo™ cell viability assay kit uses luciferase as an assay agent, which requires the involvement of ATP in luminescence. The CellTiter-Glo™ reagent is added into cell culture medium to measure the luminescence value. The luminescence signal is directly proportional to the amount of ATP in the system, and the ATP is positively correlated with the number of viable cells. Therefore, the proliferation of cells can be detected by detecting the ATP content using the CellTiter-Glo kit.
(§3) a) Cells in the logarithmic growth phase were collected and counted using a […]. The cell viability was detected by the trypan blue exclusion method, and the cell viability was kept over 90%.
(§4) b) The cell concentration was adjusted; 90 μL of the cell suspension was added to a 96-well plate.
(§5) a) A 10-fold compound solution was prepared, with the highest concentration being 10 μM (a total of 9 concentrations, 3-fold dilution). 10 μL of compound solution was added to each well of a 96-well plate inoculated with cells, and three duplicate wells were set for each compound concentration.
(§6) a) The CTG reagent was thawed and the cell plate was equilibrated to room temperature for 30 minutes.
(§7) b) An equal volume of CTG solution was added to each well.
(§8) c) The plate was shaken on an orbital shaker for 5 minutes to lyse the cells.
(§9) d) The cell plate was placed at room temperature for 20 minutes to stabilize the luminescence signal.
(§10) e) The luminescence value was read.
(§11) The data were analyzed using GraphPad Prism 5.0 software, fitted with nonlinear S-curve regression to give dose-response curves, and IC50 values were calculated therefrom.

Ba/F3 LMNA-NTRK1-WT = target: T5, Ba/F3 LMNA-NTRK1-WT (Homo sapiens, UniProt P04629); test: as above; format: cell-based; details: read-out: Half maximal inhibitory concentration IC50 of cells, Ba/F3 LMNA-NTRK1-WT
T5 construct: fused on or other part: N-terminal part of LMNA as fusion partner (part of the key); P02545 (Prelamin-A/C)
Method: as §2, §3, §4, §5, §6, §7, §8, §9, §10, §11

Ba/F3 SLC34A2-ROS1-WT = target: T6, Ba/F3 SLC34A2-ROS1-WT (Homo sapiens, UniProt P08922); test: as above; format: cell-based; details: read-out: Half maximal inhibitory concentration IC50 of cells, Ba/F3 SLC34A2-ROS1-WT
T6 construct: fused on or other part: N-terminal part of SLC34A2 as fusion partner (part of the key); O95436 (Sodium-dependent phosphate transport protein 2B)
Method: as §2, §3, §4, §5, §6, §7, §8, §9, §10, §11

BaF3 ETV6-NTRK3-WT = target: T7, BaF3 ETV6-NTRK3-WT (Homo sapiens, UniProt Q16288); test: as above; format: cell-based; details: read-out: Half maximal inhibitory concentration IC50 of cells, BaF3 ETV6-NTRK3-WT
T7 construct: fused on or other part: N-terminal part of ETV6 (TEL) as fusion partner (part of the key); P41212 (Transcription factor ETV6)
Method: as §2, §3, §4, §5, §6, §7, §8, §9, §10, §11

BaF3 LMNA-NTRK1-G595R = target: T8, BaF3 LMNA-NTRK1-G595R (Homo sapiens, UniProt P04629, G595R, cells depend on it); test: as above; format: cell-based; details: read-out: Half maximal inhibitory concentration IC50 of cells, BaF3 LMNA-NTRK1-G595R
T8 construct: fused on or other part: N-terminal part of LMNA as fusion partner (part of the key); P02545 (Prelamin-A/C)
Method: as §2, §3, §4, §5, §6, §7, §8, §9, §10, §11

BaF3 LMNA-NTRK1-G667A = target: T9, BaF3 LMNA-NTRK1-G667A (Homo sapiens, UniProt P04629, G667A, cells depend on it); test: as above; format: cell-based; details: read-out: Half maximal inhibitory concentration IC50 of cells, BaF3 LMNA-NTRK1-G667A
T9 construct: fused on or other part: N-terminal part of LMNA as fusion partner (part of the key); P02545 (Prelamin-A/C)
Method: as §2, §3, §4, §5, §6, §7, §8, §9, §10, §11

[1] = Pharmacokinetic test of compounds in mice (plasma, LC/MS/MS); format: in vivo, male CD-1 mice; details: for AUC(0-t): read-out: Area under the curve AUC0-last
Method: (§12) Experimental purpose: male CD-1 mice aged 7-9 weeks were selected as test animals, and the drug concentrations of the compounds in plasma at different time points after single intravenous injection (IV) and intragastric administration (PO) of the compounds were measured by an LC/MS/MS method, so that the pharmacokinetic behavior of the compounds disclosed herein in mice was studied, and the pharmacokinetic characteristic of the compounds was evaluated.
(§13) Drug preparation: the compounds were all prepared into clear solution by taking 5% DMSO+10% solutol+85% water as vehicle, and were used for administration in IV and PO groups. The dose of each compound administered was: IV, 3 mg/kg; PO, 10 mg/kg.

[2] = Pharmacokinetic test of compounds in rats (plasma, LC/MS/MS); format: in vivo, male SD rats; details: for AUC(0-t): read-out: Area under the curve AUC0-last
Method: as §12, with “SD rats” for “CD-1 mice”, “rats” for “mice”
as §13

[3] = Animal body weight and general observations, Ba/F3 ETV6-NTRK3 tumor-bearing nude mice
Method: The mice in groups were intragastrically administrated on the next day, and the animal body weight and the long and short diameters of the tumor were measured once every other day.

T7 sequence (Q16288 whole entry, change not shown, the tested form may be a part): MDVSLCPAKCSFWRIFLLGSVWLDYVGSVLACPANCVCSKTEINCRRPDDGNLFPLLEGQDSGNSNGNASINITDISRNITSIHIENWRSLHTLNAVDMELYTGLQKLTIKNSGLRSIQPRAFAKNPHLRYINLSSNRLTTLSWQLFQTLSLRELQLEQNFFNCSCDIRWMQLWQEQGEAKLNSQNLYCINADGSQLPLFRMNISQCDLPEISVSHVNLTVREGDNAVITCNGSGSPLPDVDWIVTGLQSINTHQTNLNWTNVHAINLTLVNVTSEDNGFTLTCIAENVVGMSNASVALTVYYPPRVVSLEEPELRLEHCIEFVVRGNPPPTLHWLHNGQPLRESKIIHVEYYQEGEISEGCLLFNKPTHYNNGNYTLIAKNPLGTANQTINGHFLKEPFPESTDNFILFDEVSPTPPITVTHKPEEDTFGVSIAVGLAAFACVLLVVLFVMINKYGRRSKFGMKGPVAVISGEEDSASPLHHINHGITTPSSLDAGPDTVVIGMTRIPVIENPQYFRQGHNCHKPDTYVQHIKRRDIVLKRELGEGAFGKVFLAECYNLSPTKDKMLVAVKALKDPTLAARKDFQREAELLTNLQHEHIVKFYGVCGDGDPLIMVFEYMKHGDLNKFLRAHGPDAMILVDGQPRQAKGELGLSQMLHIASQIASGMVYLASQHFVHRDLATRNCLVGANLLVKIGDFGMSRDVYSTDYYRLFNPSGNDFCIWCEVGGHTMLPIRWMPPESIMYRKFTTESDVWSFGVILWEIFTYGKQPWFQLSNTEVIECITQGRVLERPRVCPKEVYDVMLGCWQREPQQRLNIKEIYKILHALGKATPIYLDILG
T2 sequence (P04629 33-796): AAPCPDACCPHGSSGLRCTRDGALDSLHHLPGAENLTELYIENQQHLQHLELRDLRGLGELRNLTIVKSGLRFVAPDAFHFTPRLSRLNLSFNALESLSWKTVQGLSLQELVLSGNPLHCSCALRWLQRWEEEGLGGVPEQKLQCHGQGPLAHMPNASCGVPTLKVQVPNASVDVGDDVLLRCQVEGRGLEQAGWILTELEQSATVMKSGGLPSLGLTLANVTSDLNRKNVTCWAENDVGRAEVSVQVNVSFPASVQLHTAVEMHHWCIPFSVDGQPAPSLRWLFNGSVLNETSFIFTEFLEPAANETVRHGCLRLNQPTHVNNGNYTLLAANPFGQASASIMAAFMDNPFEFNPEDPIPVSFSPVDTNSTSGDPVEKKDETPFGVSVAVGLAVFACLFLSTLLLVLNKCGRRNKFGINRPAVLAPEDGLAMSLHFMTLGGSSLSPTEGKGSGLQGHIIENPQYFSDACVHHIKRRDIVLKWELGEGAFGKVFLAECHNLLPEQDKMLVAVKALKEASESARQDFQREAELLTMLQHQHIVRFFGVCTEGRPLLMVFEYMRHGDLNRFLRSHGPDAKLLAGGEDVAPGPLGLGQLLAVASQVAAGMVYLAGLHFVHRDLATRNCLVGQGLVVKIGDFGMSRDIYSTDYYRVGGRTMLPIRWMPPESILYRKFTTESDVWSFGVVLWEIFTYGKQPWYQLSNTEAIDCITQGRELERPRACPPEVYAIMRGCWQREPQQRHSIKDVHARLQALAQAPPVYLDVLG
T9 sequence (P04629 whole entry G667A, the tested form may be a part): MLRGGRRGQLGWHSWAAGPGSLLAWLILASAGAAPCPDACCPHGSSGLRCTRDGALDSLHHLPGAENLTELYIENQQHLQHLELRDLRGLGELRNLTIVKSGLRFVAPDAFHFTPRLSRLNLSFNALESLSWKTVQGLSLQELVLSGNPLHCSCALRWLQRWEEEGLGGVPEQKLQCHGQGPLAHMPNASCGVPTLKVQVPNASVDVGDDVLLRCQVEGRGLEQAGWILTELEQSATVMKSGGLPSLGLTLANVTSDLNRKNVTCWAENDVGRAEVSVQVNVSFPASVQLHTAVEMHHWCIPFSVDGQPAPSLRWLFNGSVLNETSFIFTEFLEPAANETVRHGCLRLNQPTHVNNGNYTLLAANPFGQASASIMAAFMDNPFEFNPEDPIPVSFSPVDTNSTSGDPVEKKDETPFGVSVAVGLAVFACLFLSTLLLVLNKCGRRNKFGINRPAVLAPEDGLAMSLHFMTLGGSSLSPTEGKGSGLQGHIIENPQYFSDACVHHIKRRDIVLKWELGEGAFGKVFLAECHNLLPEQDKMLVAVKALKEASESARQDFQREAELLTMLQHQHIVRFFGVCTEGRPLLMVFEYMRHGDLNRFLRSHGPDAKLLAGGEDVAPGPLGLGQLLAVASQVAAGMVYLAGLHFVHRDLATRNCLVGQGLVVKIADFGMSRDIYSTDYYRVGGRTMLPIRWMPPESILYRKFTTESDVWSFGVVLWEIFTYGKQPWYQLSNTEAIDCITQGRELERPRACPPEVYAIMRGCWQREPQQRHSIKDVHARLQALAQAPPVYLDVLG
T5 sequence (P04629 whole entry, change not shown, the tested form may be a part): as the sequence (P04629 whole entry G667A, the tested form may be a part) above, with A667G counted along it
T6 sequence (P08922 whole entry, change not shown, the tested form may be a part): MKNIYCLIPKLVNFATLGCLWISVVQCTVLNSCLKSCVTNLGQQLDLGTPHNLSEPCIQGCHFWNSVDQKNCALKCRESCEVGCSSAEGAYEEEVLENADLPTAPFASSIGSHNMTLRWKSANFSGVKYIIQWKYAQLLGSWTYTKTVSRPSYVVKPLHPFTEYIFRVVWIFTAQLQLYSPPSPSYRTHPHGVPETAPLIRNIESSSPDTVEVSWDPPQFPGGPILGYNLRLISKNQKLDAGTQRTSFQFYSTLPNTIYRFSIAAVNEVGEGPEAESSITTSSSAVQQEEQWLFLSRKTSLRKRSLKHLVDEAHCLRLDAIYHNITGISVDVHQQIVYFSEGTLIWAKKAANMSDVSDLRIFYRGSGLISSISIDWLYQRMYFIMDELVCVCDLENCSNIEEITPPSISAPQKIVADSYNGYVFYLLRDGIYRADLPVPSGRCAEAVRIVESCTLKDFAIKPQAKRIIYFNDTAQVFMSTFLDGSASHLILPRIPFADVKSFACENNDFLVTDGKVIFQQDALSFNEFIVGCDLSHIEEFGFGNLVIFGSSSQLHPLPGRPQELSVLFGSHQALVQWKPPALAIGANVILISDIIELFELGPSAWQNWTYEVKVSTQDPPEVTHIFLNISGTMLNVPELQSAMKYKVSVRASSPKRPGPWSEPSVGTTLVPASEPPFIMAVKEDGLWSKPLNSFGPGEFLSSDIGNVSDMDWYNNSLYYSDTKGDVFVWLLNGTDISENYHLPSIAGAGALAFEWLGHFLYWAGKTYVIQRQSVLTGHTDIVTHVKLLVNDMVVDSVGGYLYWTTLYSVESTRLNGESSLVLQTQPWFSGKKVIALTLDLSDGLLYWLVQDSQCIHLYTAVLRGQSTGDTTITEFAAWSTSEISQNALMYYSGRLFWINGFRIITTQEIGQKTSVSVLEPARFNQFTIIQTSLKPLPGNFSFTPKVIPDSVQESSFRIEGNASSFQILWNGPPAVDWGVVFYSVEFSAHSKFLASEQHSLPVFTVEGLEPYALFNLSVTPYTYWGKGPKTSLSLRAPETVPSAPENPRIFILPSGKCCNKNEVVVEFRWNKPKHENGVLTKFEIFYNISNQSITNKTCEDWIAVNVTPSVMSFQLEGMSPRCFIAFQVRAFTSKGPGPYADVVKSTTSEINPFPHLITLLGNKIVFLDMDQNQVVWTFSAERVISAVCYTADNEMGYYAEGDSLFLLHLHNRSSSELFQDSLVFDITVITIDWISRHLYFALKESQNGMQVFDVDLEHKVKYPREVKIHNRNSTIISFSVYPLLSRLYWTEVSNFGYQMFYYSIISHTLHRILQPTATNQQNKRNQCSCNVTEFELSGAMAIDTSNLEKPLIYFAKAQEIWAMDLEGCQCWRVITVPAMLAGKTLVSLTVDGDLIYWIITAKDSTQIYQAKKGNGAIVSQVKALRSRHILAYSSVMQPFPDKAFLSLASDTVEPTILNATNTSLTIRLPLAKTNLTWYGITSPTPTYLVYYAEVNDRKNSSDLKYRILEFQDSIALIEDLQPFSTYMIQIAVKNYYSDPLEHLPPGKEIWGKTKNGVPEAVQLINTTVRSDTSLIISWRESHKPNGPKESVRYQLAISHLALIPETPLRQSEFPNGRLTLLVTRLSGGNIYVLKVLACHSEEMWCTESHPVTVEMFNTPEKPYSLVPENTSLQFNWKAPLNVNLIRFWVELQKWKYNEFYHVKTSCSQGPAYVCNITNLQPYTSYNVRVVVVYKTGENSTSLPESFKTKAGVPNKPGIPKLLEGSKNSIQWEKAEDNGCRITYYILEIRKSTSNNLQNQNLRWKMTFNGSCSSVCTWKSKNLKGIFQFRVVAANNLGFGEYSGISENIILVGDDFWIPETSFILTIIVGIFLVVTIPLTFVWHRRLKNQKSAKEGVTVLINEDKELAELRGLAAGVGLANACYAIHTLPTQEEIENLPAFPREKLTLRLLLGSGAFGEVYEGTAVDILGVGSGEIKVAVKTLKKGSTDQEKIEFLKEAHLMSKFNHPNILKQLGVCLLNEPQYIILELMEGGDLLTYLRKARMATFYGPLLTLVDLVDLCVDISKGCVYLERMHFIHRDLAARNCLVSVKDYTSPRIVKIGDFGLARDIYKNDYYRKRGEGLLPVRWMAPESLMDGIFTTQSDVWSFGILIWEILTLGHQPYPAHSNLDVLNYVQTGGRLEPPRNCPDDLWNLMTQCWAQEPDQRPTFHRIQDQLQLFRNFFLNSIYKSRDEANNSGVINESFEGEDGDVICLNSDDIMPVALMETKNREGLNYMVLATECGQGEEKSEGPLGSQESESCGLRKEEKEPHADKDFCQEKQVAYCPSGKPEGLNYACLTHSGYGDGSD
T8 sequence (P04629 whole entry G595R, the tested form may be a part): as the sequence (P04629 whole entry G667A, the tested form may be a part) above, with G595R, A667G counted along it
T3 sequence (P04629 33-796 G667C): as the sequence (P04629 33-796) above, with G635C counted along it
T4 sequence (P04629 whole entry F589L, the tested form may be a part): as the sequence (P04629 whole entry G667A, the tested form may be a part) above, with F589L, A667G counted along it

Compound `O=C1NC2(CC2)COc2ncc(F)cc2C2COCCN2c2ccn3ncc1c3n2` (single isomer, unassigned) [WX001B] has an IC50 (Ros1) of 1 nM, an IC50 (TrkA) of 2.4 nM and an IC50 (TrkA-G667C) of 2.3 nM. It also gave a GI50 (Ba/F3 LMNA-NTRK1-F589L) of 7.7 nM, a GI50 (Ba/F3 LMNA-NTRK1-WT) of 0.6 nM and a GI50 (Ba/F3 SLC34A2-ROS1-WT) of 64.2 nM. For the same compound, the GI50 (BaF3 ETV6-NTRK3-WT) was 2.6 nM, the GI50 (BaF3 LMNA-NTRK1-G595R) was 2.7 nM and the GI50 (BaF3 LMNA-NTRK1-G667A) was 0.8 nM. For the same compound, the “Apparent clearance Cl” value ([1]; IV, 3 mg/kg) was 0.44 L/h/kg, the Vd ([1]; male, CD-1, mouse, plasma, IV, 3 mg/kg, read-out: Apparent volume of distribution Vd) was 0.77 L/kg and the AUC(0-t) ([1]; male, CD-1, mouse, plasma, IV, 3 mg/kg) was 16.6 µM·h. The half-life ([1]; male, CD-1, mouse, plasma, IV, 3 mg/kg, read-out: Half-life T1/2 (converted)) was 1.58 h, the AUC(0-t) ([1]; male, CD-1, mouse, plasma, PO, 10 mg/kg) was 49.1 µM·h and the bioavailability ([1]; male, CD-1, mouse, plasma, PO, 10 mg/kg, read-out: Bioavailability F %) was 89%. For the same compound, the Cmax ([1]; male, CD-1, mouse, plasma, PO, 10 mg/kg, read-out: Peak concentration Cmax) was 12.2 µM, the “Apparent clearance Cl” value ([2]; IV, 3 mg/kg) was 1.18 L/h/kg and the Vd ([2]; male, SD, rat, plasma, IV, 3 mg/kg, read-out: Apparent volume of distribution Vd) was 1.9 L/kg. It also gave an AUC(0-t) ([2]; male, SD, rat, plasma, IV, 3 mg/kg) of 6.24 µM·h, a half-life ([2]; male, SD, rat, plasma, IV, 3 mg/kg, read-out: Half-life T1/2 (converted)) of 1.2 h and an AUC(0-t) ([2]; male, SD, rat, plasma, PO, 10 mg/kg) of 8.07 µM·h. The bioavailability ([2]; male, SD, rat, plasma, PO, 10 mg/kg, read-out: Bioavailability F %) was 39%, the Cmax ([2]; male, SD, rat, plasma, PO, 10 mg/kg, read-out: Peak concentration Cmax) was 1.8 µM and the “Rate of change in body weight (%) of day 11 to day 0” value ([3]; 2.5 mg/kg bid) was 4.9%. The “Rate of change in body weight (%) of day 11 to day 0” value ([3]; 5 mg/kg bid) was 5.0%, the “Rate of change in body weight (%) of day 11 to day 0” value ([3]; 10 mg/kg bid) was 4.8% and the “Rate of change in body weight (%) of day 11 to day 0” value ([3]; 20 mg/kg bid) was 5.1%. The Body weight ([3]; Day 0, 2.5 mg/kg bid) was 22.9 ± 1.6 g, the Body weight ([3]; Day 0, 5 mg/kg bid) was 23.5 ± 1.6 g and the Body weight ([3]; Day 0, 10 mg/kg bid) was 23.3 ± 0.9 g. The Body weight ([3]; Day 0, 20 mg/kg bid) was 23.2 ± 1.9 g, the Body weight ([3]; Day 3, 2.5 mg/kg bid) was 24.2 ± 2.0 g and the Body weight ([3]; Day 3, 5 mg/kg bid) was 25.5 ± 1.8 g. The Body weight ([3]; Day 3, 10 mg/kg bid) was 24.9 ± 0.7 g, the Body weight ([3]; Day 3, 20 mg/kg bid) was 25.1 ± 2.5 g and the Body weight ([3]; Day 5, 2.5 mg/kg bid) was 24.8 ± 1.8 g. The Body weight ([3]; Day 5, 5 mg/kg bid) was 26.4 ± 1.6 g, the Body weight ([3]; Day 5, 10 mg/kg bid) was 25.8 ± 0.7 g and the Body weight ([3]; Day 5, 20 mg/kg bid) was 26.2 ± 2.8 g. It also gave a Body weight ([3]; Day 7, 2.5 mg/kg bid) of 25.4 ± 2.0 g, a Body weight ([3]; Day 7, 5 mg/kg bid) of 27.5 ± 1.7 g and a Body weight ([3]; Day 7, 10 mg/kg bid) of 26.3 ± 1.1 g. It also gave a Body weight ([3]; Day 7, 20 mg/kg bid) of 27.2 ± 2.7 g, a Body weight ([3]; Day 9, 2.5 mg/kg bid) of 25.5 ± 1.8 g and a Body weight ([3]; Day 9, 5 mg/kg bid) of 27.5 ± 2.3 g. The Body weight ([3]; Day 9, 10 mg/kg bid) was 26.4 ± 1.1 g, the Body weight ([3]; Day 9, 20 mg/kg bid) was 27.7 ± 2.9 g and the Body weight ([3]; Day 11, 2.5 mg/kg bid) was 25.7 ± 1.9 g. The Body weight ([3]; Day 11, 5 mg/kg bid) was 27.8 ± 2.2 g, the Body weight ([3]; Day 11, 10 mg/kg bid) was 26.4 ± 1.4 g and the Body weight ([3]; Day 11, 20 mg/kg bid) was 27.6 ± 3.5 g. For the same compound, the “General observations: survival” value ([3]; all animals in all dose groups) was “survived until the end of administration” and the “Tolerance (body weight course)” value ([3]; all dose groups, 2.5-20 mg/kg bid) was “good tolerance”.
